Legend:
Type in all cases: cell-based
Phoma betae = test: Antifungal activity in three media differing in ionic strength (Table 3); settings: 72 hours
Experimental: (§1) The antifungal activity of the G9R and V39R Rs-AFP2 isoforms was also assessed on a set of seven different phytopathogenic fungi in three media differing in ionic strength: SMF−, SMF plus 1 mM CaCl2 and 50 mM KCl, and SMF plus 5 mM CaCl2 and 50 mM KCl. The fungi tested were: Alternaria brassicicola, Ascochyta pisi, Botrytis cinerea, Fusarium culmorum, Nectria haematococca, Phoma betae and Verticillium dahliae.

Ascochyta pisi = test: as above; settings: for IC50 VALUES, A pisi, SMF + 1 mM CaCl2/50 mM KCl / IC50 VALUES, A pisi, SMF + 5 mM CaCl2/50 mM KCl / IC50 VALUES, A pisi, SMF: 72 hours; for activity against A pisi compared with Rs-AFP2, in words: Table 3 data
Experimental: as §1

Verticillium dahliae = test: as above; settings: for IC50 VALUES, V dahliae, SMF + 1 mM CaCl2/50 mM KCl / IC50 VALUES, V dahliae, SMF + 5 mM CaCl2/50 mM KCl / IC50 VALUES, V dahliae, SMF: 96 hours; for fold activity relative to Rs-AFP2 against V dahliae: SMF plus 1 mM CaCl2 and 50 mM KCl
Experimental: as §1

Nectria haematococca = test: as above; settings: for IC50 VALUES, N haematococca, SMF + 1 mM CaCl2/50 mM KCl / IC50 VALUES, N haematococca, SMF + 5 mM CaCl2/50 mM KCl / IC50 VALUES, N haematococca, SMF: 72 hours; for fold activity relative to Rs-AFP2 against N haematococca: SMF plus 1 mM CaCl2 and 50 mM KCl
Experimental: as §1

Fusarium culmorum = test: as above; settings: for IC50 VALUES, F culmorum, SMF + 1 mM CaCl2/50 mM KCl / IC50 VALUES, F culmorum, SMF + 5 mM CaCl2/50 mM KCl / IC50 VALUES, F culmorum, SMF: 96 hours; for fold activity relative to Rs-AFP2 against F culmorum: SMF plus 1 mM CaCl2 and 50 mM KCl
Experimental: as §1

Alternaria brassicicola = test: as above; settings: for IC50 VALUES, A brassicicola, SMF + 1 mM CaCl2/50 mM KCl / IC50 VALUES, A brassicicola, SMF + 5 mM CaCl2/50 mM KCl / IC50 VALUES, A brassicicola, SMF: 72 hours; for activity against A brassicola compared with Rs-AFP2, in words: Table 3 data
Experimental: as §1

Botrytis cinerea = test: as above; settings: for IC50 VALUES, B cinerea, SMF + 1 mM CaCl2/50 mM KCl / IC50 VALUES, B cinerea, SMF + 5 mM CaCl2/50 mM KCl / IC50 VALUES, B cinerea, SMF: 72 hours; for activity against B cinerea compared with Rs-AFP2, in words: Table 3 data
Experimental: as §1

F culmorum [1] = test: Growth inhibition in SMF with varying CaCl2 or KCl (FIG. 7); settings: for reduction of antifungal activity by cations, compared with wild-type Rs-AFP2: FIG. 7; for activity in the presence of 100 mM KCl: SMF with 100 mM KCl, FIG. 7, 10 μg/ml; for growth inhibition in the presence of 5mM CaCl2: protein 10 μg/ml, SMF with 5mM CaCl2
Experimental: Their antifungal activity was determined in SMF with increasing Ca^2+ or K^+ concentration and compared with that of plant-derivable wild type Rs-AFP2 (isolated from seed) as well as yeast purified Rs-AFP2. FIG. 7 is a graph of the percentage growth inhibition of F culmorum caused by 10 μg/ml of yeast-purified Rs-AFP2 (SEQ ID NO: 20) (open circles), seed-purified Rs-AFP2 (SEQ ID NO: 77) (closed circles), Rs-AFP2/G9R (SEQ ID NO: 38) (squares) and Rs-AFP2/V39R (SEQ ID NO: 43) (triangles) in a medium consisting of SMF with varying concentrations of CaCl2 (panel A) and KCl (panel B).

F culmorum [2] = test: Specific antifungal activity of Rs-AFP2 isoforms in SMF− and SMF+ media; set-up: IC50 SMF− / IC50 SMF+: unit not given here; settings: for RELATIVE SPECIFIC ACTIVITY (%) IN MEDIUM SMF+ / RELATIVE SPECIFIC ACTIVITY (%) IN MEDIUM SMF−: 1/IC50 of mutant divided by that of yRs-AFP2 x 100, 48 hour incubation, preliminary tests; for RELATIVE SPECIFIC ACTIVITY (%) IN MEDIUM SMF+: SMF with 1 mM CaCl2 and 50 mM KCl; for RELATIVE SPECIFIC ACTIVITY (%) IN MEDIUM SMF−: low ionic strength medium; for IC50 SMF+ / IC50 SMF−: 72 hours growth, triplicate; for IC50 SMF+: high salt medium (1 mM CaCl2, 50 mM KCl); for IC50 SMF− / effect of substitution on antifungal activity in SMF−, in words: low salt medium; for effect of substitution on antifungal activity in SMF+, in words / effect of substitution on antifungal activity in SMF−, in words: Table 2 tests; for effect of substitution on antifungal activity in SMF+, in words: high salt medium; for relative specific antifungal activity (1/IC50), FIG. 6, in words: medium SMF+, Rs-AFP2 set at 100
Experimental: For each isoform, two independent purifications were carried out and the antifungal activity was determined in duplicate using F culmorum as a test fungus in two different media: a low ionic strength medium called SMF-(Terras et al, 1992, J Biol Chem, 267:15301-15309) and the same medium supplemented with 1 mM CaCl2 and 50 mM KCl called SMF+. The presence of salts in the test medium, especially salts with divalent cations, reduces the specific activity of Rs-AFP2. Seed-purified as well as yeast-expressed wild type Rs-AFP2 served as a control in the assays.
The relative specific activity is expressed as the specific activity of the mutant divided by the specific activity of yRs-AFP2 and multiplied by 100. […] The specific activity was measured in medium SMF−and SMF+.
Deviations are given as standard error of the mean (sem) based on the triplicate experiments. In SMF−, the medium without added salts, most of the derivatives show no decrease or only a minor decrease in antifungal activity, while in SMF+, the medium with added salts, there is a significant decrease in antifungal activity for several Rs-AFP2 isoforms.

Row | Substance | IC50 VALUES, P betae, SMF + 1 mM CaCl2/50 mM KCl (Phoma betae) [µg/mL] | IC50 VALUES, P betae, SMF + 5 mM CaCl2/50 mM KCl (Phoma betae) [µg/mL] | IC50 VALUES, P betae, SMF (Phoma betae) [µg/mL] | IC50 VALUES, A pisi, SMF + 1 mM CaCl2/50 mM KCl (Ascochyta pisi) [µg/mL] | IC50 VALUES, A pisi, SMF + 5 mM CaCl2/50 mM KCl (Ascochyta pisi) [µg/mL] | IC50 VALUES, A pisi, SMF (Ascochyta pisi) [µg/mL] | activity against A pisi compared with Rs-AFP2, in words (Ascochyta pisi) | IC50 VALUES, V dahliae, SMF + 1 mM CaCl2/50 mM KCl (Verticillium dahliae) [µg/mL] | IC50 VALUES, V dahliae, SMF + 5 mM CaCl2/50 mM KCl (Verticillium dahliae) [µg/mL] | fold activity relative to Rs-AFP2 against V dahliae (Verticillium dahliae) | IC50 VALUES, V dahliae, SMF (Verticillium dahliae) [µg/mL] | IC50 VALUES, N haematococca, SMF + 1 mM CaCl2/50 mM KCl (Nectria haematococca) [µg/mL] | IC50 VALUES, N haematococca, SMF + 5 mM CaCl2/50 mM KCl (Nectria haematococca) [µg/mL] | fold activity relative to Rs-AFP2 against N haematococca (Nectria haematococca) | IC50 VALUES, N haematococca, SMF (Nectria haematococca) [µg/mL] | IC50 VALUES, F culmorum, SMF + 1 mM CaCl2/50 mM KCl (Fusarium culmorum) [µg/mL] | IC50 VALUES, F culmorum, SMF + 5 mM CaCl2/50 mM KCl (Fusarium culmorum) [µg/mL] | fold activity relative to Rs-AFP2 against F culmorum (Fusarium culmorum) | IC50 VALUES, F culmorum, SMF (Fusarium culmorum) [µg/mL] | IC50 VALUES, A brassicicola, SMF + 1 mM CaCl2/50 mM KCl (Alternaria brassicicola) [µg/mL] | further results
1 | yRs-AFP2/V39R: yeast-expressed Rs-AFP2 isoform, position 39 valine to arginine (QKLCQRPSGTWSGVCGNNNACKNQCIRLEKARHGSCNYRFPAHKCICYFPC; listed as Raphanus sativus) | 40.0 | 70.0 | 1.4 | >50 | >100 | 2.0 | comparable to the activity of Rs-AFP2 | 2.3 | 6.0 | five-fold more active | 0.4 | 9.0 | 62.0 | five-fold more active | 2.1 | 2.3 | 7.0 | approximately two-fold more active | 2.2 | 50 | IC50 VALUES, A brassicicola, SMF + 5 mM CaCl2/50 mM KCl (Alternaria brassicicola): >100 µg/mL; IC50 VALUES, A brassicicola, SMF (Alternaria brassicicola): 2.5 µg/mL; activity against A brassicola compared with Rs-AFP2, in words (Alternaria brassicicola): comparable to the activity of Rs-AFP2; IC50 VALUES, B cinerea, SMF + 1 mM CaCl2/50 mM KCl (Botrytis cinerea): >50 µg/mL; IC50 VALUES, B cinerea, SMF + 5 mM CaCl2/50 mM KCl (Botrytis cinerea): >100 µg/mL; IC50 VALUES, B cinerea, SMF (Botrytis cinerea): 1.6 µg/mL; activity against B cinerea compared with Rs-AFP2, in words (Botrytis cinerea): comparable to the activity of Rs-AFP2; reduction of antifungal activity by cations, compared with wild-type Rs-AFP2 (F culmorum [1]): less reduced by the presence of cations; activity in the presence of 100 mM KCl (F culmorum [1]): fully inhibitory; growth inhibition in the presence of 5mM CaCl2 (F culmorum [1]): complete inhibition; RELATIVE SPECIFIC ACTIVITY (%) IN MEDIUM SMF+ (F culmorum [2]): 114%; RELATIVE SPECIFIC ACTIVITY (%) IN MEDIUM SMF− (F culmorum [2]): 74%; IC50 SMF+ (F culmorum [2]): 3.2; IC50 SMF− (F culmorum [2]): 4.0; antifungal activity in SMF+ relative to wild-type Rs-AFP2 (F culmorum [2]): approximately two-fold higher; antifungal activity compared with yRs-AFP2, in words (F culmorum [2]; Table 1 tests, SMF− and SMF+): maintain their antifungal activity; effect of substitution on antifungal activity in SMF+, in words (F culmorum [2]): increased antifungal activity; effect of substitution on antifungal activity in SMF−, in words (F culmorum [2]): little effect on the antifungal activity; relative specific antifungal activity (1/IC50), FIG. 6, in words (F culmorum [2]): particularly active
2 | yRs-AFP2/G9R: yeast-expressed Rs-AFP2 isoform, position 9 glycine to arginine (QKLCQRPSRTWSGVCGNNNACKNQCIRLEKARHGSCNYVFPAHKCICYFPC; listed as Raphanus sativus) | 2.50 | >100 | 2.0 | >50 | >100 | 1.6 | comparable to the activity of Rs-AFP2 | 4.0 | 17.0 | approximately three-fold more active | 0.5 | 16.0 | 100 | approximately three-fold more active | 2.0 | 1.5 | 7.2 | approximately three-fold more active | 2.2 | >50 | IC50 VALUES, A brassicicola, SMF + 5 mM CaCl2/50 mM KCl (Alternaria brassicicola): >100 µg/mL; IC50 VALUES, A brassicicola, SMF (Alternaria brassicicola): 2.6 µg/mL; activity against A brassicola compared with Rs-AFP2, in words (Alternaria brassicicola): comparable to the activity of Rs-AFP2; IC50 VALUES, B cinerea, SMF + 1 mM CaCl2/50 mM KCl (Botrytis cinerea): >50 µg/mL; IC50 VALUES, B cinerea, SMF + 5 mM CaCl2/50 mM KCl (Botrytis cinerea): >100 µg/mL; IC50 VALUES, B cinerea, SMF (Botrytis cinerea): 1.9 µg/mL; activity against B cinerea compared with Rs-AFP2, in words (Botrytis cinerea): comparable to the activity of Rs-AFP2; reduction of antifungal activity by cations, compared with wild-type Rs-AFP2 (F culmorum [1]): less reduced by the presence of cations; activity in the presence of 100 mM KCl (F culmorum [1]): fully inhibitory; growth inhibition in the presence of 5mM CaCl2 (F culmorum [1]): complete inhibition; RELATIVE SPECIFIC ACTIVITY (%) IN MEDIUM SMF+ (F culmorum [2]): 285%; RELATIVE SPECIFIC ACTIVITY (%) IN MEDIUM SMF− (F culmorum [2]): 116%; IC50 SMF+ (F culmorum [2]): 3.3; IC50 SMF− (F culmorum [2]): 3.0; antifungal activity in SMF+ relative to wild-type Rs-AFP2 (F culmorum [2]): approximately two-fold higher; antifungal activity compared with yRs-AFP2 in high salt (SMF+), in words (F culmorum [2]; Table 1 tests): approximately three times more active than yRs-AFP2; antifungal activity compared with yRs-AFP2 in low salt (SMF−), in words (F culmorum [2]; Table 1 tests): not so significantly different in low salt; effect of substitution on antifungal activity in SMF+, in words (F culmorum [2]): increased antifungal activity; effect of substitution on antifungal activity in SMF−, in words (F culmorum [2]): little effect on the antifungal activity; relative specific antifungal activity (1/IC50), FIG. 6, in words (F culmorum [2]): particularly active

— US6864068B2, “Antifungal proteins” (Syngenta Limited, priority 1995, dated 2005)
